Values joined by “and” are separate entries in the source; they are usually repeats but may differ in a detail not shown here. Identical values can stand only once. Like-named read-outs stand apart in the source and are kept apart here.
What was measured:
[1] = system: L. amazonensis promastigotes; experiment: Leishmanicidal activity assay (alamarBlue), promastigotes; type: cell-based, Leishmania amazonensis; details: for IC50 / fold more potent than the reference drug against L. amazonensis: promastigote stage; for IC50: read-out: L. amazonensis IC50 (µM ± SD); for fold more potent than the reference drug against L. amazonensis: vs miltefosine; for SI (CC50/IC50), L. amazonensis: promastigotes vs murine macrophages
Experimental: (§1) To perform the experiments, promastigotes of L. amazonensis (MHOM/BR/77/LTB0016) and L. donovani (MHOM/IN/90/GE1F8R) and epimastigote T. cruzi (Y strain) were employed. Leishmania species were cultured in Schneider’s medium (Sigma-Aldrich, Madrid, Spain) at 26 °C supplemented with 10% fetal bovine serum (VWR, Biowest, Nuaillé, France) as well as in RPMI 1640 medium (Gibco, Thermo Fisher, Madrid, Spain). Epimastigotes of T. cruzi were cultured in Liver Infusion Tryptose (LIT) medium supplemented with 10% fetal bovine serum at 26 °C. For the cytotoxicity assays, murine macrophage cell line J774A.1 (ATCC TIB-67) was maintained at 37 °C in a 5% CO2 atmosphere in RPMI 1640 medium supplemented with 10% fetal bovine serum.
(§2) Promastigote in logarithmic phase were used for plate preparation, and the in vitro antiprotozoal assay was performed in 96-well plates. The different fractions or compounds were serially diluted on the wells and 10^6 parasites/mL were finally added. The activity of the fraction was calculated by the alamarBlue® method. In addition, the active pure molecules were tested against the amastigote stage of L. amazonensis.

[2] = system: L. donovani promastigotes; experiment: as above; type: cell-based, Leishmania donovani; details: for IC50: promastigote stage; for SI (CC50/IC50), L. donovani: promastigotes vs murine macrophages
Experimental: as §1, §2

T. cruzi epimastigotes = experiment: Trypanocidal capacity assay (alamarBlue), epimastigotes; type: cell-based, Trypanosoma cruzi; details: for IC50: epimastigote stage, read-out: T. cruzi IC50 (µM ± SD); for SI (CC50/IC50), T. cruzi: epimastigotes vs murine macrophages
Experimental: as §1
For the evaluation against the epimastigote stage of T. cruzi, assays were performed following the same procedure mentioned in Section 3.5.1., modifying the density to 2 × 10^5 parasite/well and using LIT medium.

[3] = Cytotoxicity assay (alamarBlue); type: cell-based, murine; details: mouse, J774A.1 macrophage cell line; J774A.1, 24 h; read-out: Murine Macrophages CC50
Experimental: as §1
(§3) The cytotoxicity was evaluated using a macrophage cell line J774A.1 in RPMI medium. Macrophages were plated and at 10^5 macrophages/well and, subsequently, serial dilution of samples were added to the plates. After 24 h of incubation cell viability was determined by the alamarBlue® [28].

[4] = system: intracellular amastigote stage of L. amazonensis; experiment: Amastigote activity assay (parasite rescue and transformation, alamarBlue); type: cell-based, Leishmania amazonensis; details: for IC50: intracellular amastigote stage, read-out: L. amazonensis IC50 (µM ± SD); for SI (CC50/IC50), L. amazonensis amastigote: amastigotes vs murine macrophages; for fold more potent than the reference drug against L. amazonensis amastigotes: intracellular amastigote, vs miltefosine
Experimental: as §2
The amastigote activity was performed according to Jain et al.. After allowing the transformation of rescued amastigotes to promastigotes, the activity was evaluated by AlamarBlue method. After incubation, the fluorescence was measured in a Perkin Elmer EnSpire spectrofluorometer and fluorescence was measured at emission peak 585 nm.

L. amazonensis [5] = experiment: Measurement of ATP (Cell Titer-Glo); type: cell-based, Leishmania amazonensis; details: IC90, 24 h
Experimental: (§4) To determine the ATP level of the parasites, the Cell Titer-Glo® Luminescent Cell Viability Assay (Promega, Madison, WI, USA) was used following the manufacturer’s instructions after incubation of the parasites with the calculated IC90 of the tested withanolides for 24 h.

T. cruzi = experiment: Measurement of ATP (Cell Titer-Glo); type: cell-based, Trypanosoma cruzi; details: IC90, 24 h
Experimental: as §4

L. amazonensis [6] = experiment: Chromatin condensation determination (Hoechst 33342/propidium iodide); type: cell-based, Leishmania amazonensis; details: IC90, 24 h
Experimental: The detection of condensed chromatin, was performed using the Vybrant™ Apoptosis Assay Kit #5, Hoechst 33342/Propidium Iodide (Invitrogen, Carlsbad, CA, USA). Parasites were incubated with the IC90 of the pure compounds for 24 h, then collected and centrifuged. The cell pellet was resuspended in RPMI, added to a black plate and incubated with the Hoechst 33342 and the propidium iodide. Then the plate was protected from light for 20 min at 4 °C. The EVOS FL Cell Imaging System (Invitrogen, ThermoFisher, Carlsbad, CA, USA) was used to observe the cells, using the DAPI (Hoechst) and RFP (PI) Light Cubes.

[7] = system: murine macrophage cell line J774A.1; experiment: Cytotoxicity assay (alamarBlue); type: cell-based
Experimental: as §1, §3

| Compound | fold more potent than the reference drug against L. amazonensis [1] [fold] | SI (CC50/IC50), L. amazonensis [1] | SI (CC50/IC50), L. donovani [2] | fold more potent than benznidazole against T. cruzi epimastigotes (T. cruzi epimastigotes) [fold] | SI (CC50/IC50), T. cruzi (T. cruzi epimastigotes) | CC50 at 24 h [3] | IC50 ([4]; Leishmania amazonensis) [µM] | SI (CC50/IC50), L. amazonensis amastigote [4] | fold more potent than the reference drug against L. amazonensis amastigotes [4] [fold] | other results |
| --- | --- | --- | --- | --- | --- | --- | --- | --- | --- | --- |
| CC1=C(CO)C(=O)O[C@@H]([C@@H](C)[C@H]2CC[C@H]3[C@@H]4C[C@H]5O[C@]56[C@@H](O)C=CC(=O)[C@]6(C)[C@H]4CC[C@]23C)C1 [Compound 1, withaferin A] | 7.8 | 14.36 | 0.91 | 6.8 | 11.69 | 11.9 ± 1.08 µM | 0.055 ± 0.009 | 216.73 | 56 | IC50 ([1]; Leishmania amazonensis): 0.83 ± 0.07 µM; IC50 ([2]; Leishmania donovani, read-out: L. donovani IC50 (µM ± SD)): 13.2 ± 1.16 µM; IC50 (T. cruzi epimastigotes; Trypanosoma cruzi): 1.02 ± 0.1 µM; total ATP level (L. amazonensis [5]): strong decrease; ATP level (T. cruzi): slight decrease; propidium iodide staining (L. amazonensis [6]): staining in red was observed |
| O=C(Cn1ccnc1[N+](=O)[O-])NCc1ccccc1 [Benznidazole] |  |  |  |  | 57.54 | 104 µg/mL and 400 µM |  |  |  |  |
| witharistatin [Compound 3] | 2.3 |  |  | 2.9 |  |  |  | 58.66 | 14.9 | IC50 [1]: 2.82 ± 0.07 µM; IC50 ([2]; read-out: L. donovani IC50 (µM ± SD)): 20.9 ± 1.33 µM; IC50 (T. cruzi epimastigotes): 2.41 ± 0.11 µM; CC50 [7]: 12.3 ± 1.16 µM; IC50 [4]: 0.209 ± 0.028 µM |
| CCCCCCCCCCCCCCCCOP(=O)([O-])OCC[N+](C)(C)C [Miltefosine, reference compound] |  | 11.14 | 21.81 |  |  | 29.4 µg/mL and 72.2 µM | 3.12 ± 0.12 | 23.13 |  | IC50 ([2]; Leishmania donovani, read-out: L. donovani IC50): 1.35 mg/L |
